Measured values: patent US8367607B2, “Oxyntomodulin peptide analogue” (Eli Lilly and Company, priority 2009, dated 2013)
Marks after values point to notes of the source that are not given here.

Experiments:
[1] = Oral glucose tolerance test after 2-week treatment in DIO mice; format: in vivo; settings: for Glucose AUC (0 to 120 min), oral glucose load, MEAN: DIO mice
Method: (§1) Fifty-six hours after the last injection as described in Example 7 (Study 1) in DIO mice, mice are fasted for 16 hours prior to the start of the glucose tolerance test. At time 0, animals are given 2 g/kg dextrose by oral gavage or intraperitoneal (IP) injection. Blood is collected by tail vein bleeding at 0, 15, 30, 60 and 120 minutes after glucose challenge. Glucose concentration is measured by glucometer.

[2] = Food intake, body weight, body composition, calorimetry and plasma markers in DIO mice, Study 2: four week treatment; format: in vivo, diet-induced obese (DIO) C57BL/6 mice
Method: Three to four months old male diet-induced obese (DIO) C57BL/6 mice are used. Animals are individually housed in a temperature-controlled (24° C.) facility with a 12 hour light/dark cycle (lights on 22:00), and have free access to food and water. After 2 weeks acclimation to the facility, mice are randomized to treatment groups (n=8-10/group), each group having similar mean body weight and fat mass. Before the experiment, mice are subcutaneously (sc) injected with vehicle solution and weighed for 2 days to acclimate them to the procedures.
Body weight and the weight of food plus the hopper are measured at the same time. Food consumed in the preceding 24 hours is calculated by subtracting current weight of food plus the hopper from that of the previous day. Absolute changes in body weight are calculated by subtracting the body weight of the animal prior to the first injection. On days 1, 14 and 28 total fat mass is measured by nuclear magnetic resonance (NMR) using an Echo Medical System (Houston, Tex.) instrument. Fat free mass is calculated by subtracting fat mass from total body weight.

[3] = Intraperitoneal glucose tolerance test in lean mice; format: in vivo, C57BL/6 mice; settings: 16 hours before test
Method: Nine week old male C57BL/6 mice are used in the study Animals are randomized into groups based on fed body weight. […] Food is removed at the time of injection of peptide or vehicle. At time 0, animals are given 2 g/kg dextrose by IP injection. Blood is collected by tail vein bleeding at 0, 3, 6, 12 and 30 minutes after glucose challenge. Glucose concentration is measured by glucometer. Insulin is measure by Mesoscale.

[4] = Acute effects on plasma FGF21, triglyceride levels and hepatic gene expression in DIO mice; format: in vivo, diet-induced obese C57BL/6 mice; settings: single sc injection 22.5 nmole/kg
Method: The day before the study, mice are randomized to treatment groups (N=7/group), each group having similar mean body weight. […] Food is removed at the time of injection of peptide or vehicle. The following morning (approximately 10 AM), the animals are sacrificed to collect plasma and liver tissue. Glucose and triglyceride concentrations are measured using a Hitachi blood chemistry analyzer. Gene expression is determined by RT-PCR. Malonyl-CoA and acetyl-CoA levels are measured by HPLC.

[5] = Oral glucose tolerance test (OGTT) in ob/ob mice; format: in vivo; settings: single injection 7.5 nmole/kg
Method: Two to three months old male ob/ob mice are individually housed in a temperature-controlled (24° C.) facility with a 12 hour light/dark cycle (lights on 2200 hours), and have free access to the standard chow and water. After at least 2 weeks of acclimation to the facility, 3-hours fasting blood glucose is measured by tail vein bleeding at 9 AM. Mice with blood glucose under 180 mg/dL are not used. Remaining animals are randomized to treatment groups (N=6-7/group), each group having similar average blood glucose level. The mice are given access to food until the time of injection. […] Food is removed at the time of injection. An OGTT (Table 7) or IPGTT (Table 8) is performed 16 hours after the peptide injection. At time 0, animals are given 2 g/kg dextrose by oral gavage (Table 7) or intraperitoneal injection (Table 8). Blood is collected by tail vein bleeding at 0, 15, 30, 60 and 120 minutes after glucose challenge. Glucose concentration is measured by glucometer.

[6] = Intraperitoneal glucose tolerance test after 4-week treatment in DIO mice; format: in vivo; settings: for Glucose AUC (0 to 120 min), intraperitoneal glucose load, MEAN: after 4 week treatment, DIO mice
Method: as §1
An intraperitoneal glucose tolerance test (IPGTT) is performed on day 29, 3 days after the last injection as described in Example 7 (Study 2) in DIO mice.

[7] = Food intake, body weight and body composition in DIO mice, Study 1: two week treatment; format: in vivo, diet-induced obese (DIO) C57BL/6 mice
Method: Three to four months old male diet-induced obese (DIO) C57BL/6 mice are used. Animals are individually housed in a temperature-controlled (24° C.) facility with a 12 hour light/dark cycle (lights on 22:00), and have free access to food and water. […] Body weight and the weight of food plus the hopper are measured at the same time. Food consumed in the preceding 24 hours is calculated by subtracting current weight of food plus the hopper from that of the previous day. Absolute changes in body weight are calculated by subtracting the body weight of the animal prior to the first injection. […] Fat free mass is calculated by subtracting fat mass from total body weight.

[8] = high dose, completion of 4-week study

In the case of “His-(Aib)-Gln-Gly-Thr-Phe-Thr-Ser-Asp-Tyr-Ser-Lys-Tyr-Leu-Asp-Ser-Lys-Lys-Ala-Gln-Glu-Phe-Val-Gln-Trp-Leu-Leu-Asn-(Aib)-Gly-Arg-Asn-Arg-Asn-Asn-Ile-Ala-Cys(20 kDa PEG)-Cys(20 kDa PEG)”, the “Glucose AUC (0 to 120 min), oral glucose load, MEAN” value ([1]; 7.5 nmole/kg) is reported as 17722* mg * min/dL, the “Glucose AUC (0 to 120 min), oral glucose load, MEAN” value ([1]; 15 nmole/kg) is reported as 17518* mg * min/dL and the “blood glucose at all time points before and after the oral glucose challenge versus vehicle” value ([1]; all doses) is reported as “significantly lowered”. For the same substance, the “Total food intake (g total for the first 14 days)” value ([2]; 6.7 nmole/kg sc every 3 days) was 36.0 ± 1.1 g, the “Fat mass loss (g fat weight change for 28 days)” value ([2]; 6.7 nmole/kg sc every 3 days) was -0.7 ± 0.2 g and the “Overall weight loss (g weight change for 28 days)” value ([2]; 6.7 nmole/kg sc every 3 days) was -2.0 ± 0.4 g. For the same substance, the “weight loss compared with 22.5 nmole/kg dose of the positive control” value ([2]; 20 nmole/kg) was “significantly greater weight loss”, the “Total food intake (g total for the first 14 days)” value ([2]; 20.0 nmole/kg sc every 3 days) was 26.1 ± 1.4 g and the “Fat mass loss (g fat weight change for 28 days)” value ([2]; 20.0 nmole/kg sc every 3 days) was -7.5 ± 0.7 g. For the same substance, the “Overall weight loss (g weight change for 28 days)” value ([2]; 20.0 nmole/kg sc every 3 days) was -11.1 ± 0.9 g, the “maximal weight reduction, of the initial body weight” value ([2]; 20 nmole/kg, after 15 days of treatment) was “about 25%” and the “increase of averaged 24-hour energy expenditure versus vehicle” value ([2]; 20 nmole/kg, indirect calorimetry, day 21) was 18%. For the same substance, the “leptin levels versus vehicle treated controls” value [2, 8] was “significantly reduced”, the “plasma adiponectin levels versus vehicle treated controls” value [2, 8] was “statistically significantly difference” and the cumulative food intake ([2]; high doses (20 nmole/kg)) was “significantly decreased”. The “body weight versus positive control group” value ([2]; lower doses (6.7 nmole/kg)) was “decreased body weight to a similar degree as seen in the positive control group”, the “Glucose AUC (0 to 30 min), IPGTT in lean mice, MEAN” value ([3]; 5 nmole/kg) was 7059 mg·min/dL and the “Insulin AUC (0 to 30 min), IPGTT in lean mice, MEAN” value ([3]; 5 nmole/kg) was 30.67* ng * min/mL. For the same substance, the “Glucose AUC (0 to 30 min), IPGTT in lean mice, MEAN” value ([3]; 15 nmole/kg) was 6103* mg * min/dL, the “Insulin AUC (0 to 30 min), IPGTT in lean mice, MEAN” value ([3]; 15 nmole/kg) was 45.26* ng * min/mL and the “decrease of liver acetyl-CoA concentration versus vehicle control” value ([4]; DIO mice) was 39%. For the same substance, the “decrease of liver malonyl-CoA concentration versus vehicle control” value ([4]; DIO mice) was 63%, the “decrease of hepatic ChREBP gene expression” value ([4]; RT-PCR) was 52% and the “decrease of hepatic PCSK9 gene expression” value ([4]; RT-PCR) was 61%. The “increase of hepatic pgc-1a gene expression” value ([4]; RT-PCR) was 7 fold, the “induction of hepatic FGF21 gene expression” value ([4]; RT-PCR) was 17 fold and the “increase in circulating FGF21” value ([4]; plasma) was 6 fold. For the same substance, the “blood glucose in ob/ob mice” value [5] was “normalized blood glucose”, the “blood glucose levels at all time points after glucose challenge versus vehicle control group” value ([5]; ob/ob mice) was “significantly lower” and the “Glucose AUC (0 to 120 min), intraperitoneal glucose load, MEAN” value ([6]; 6.7 nmole/kg) was 30073 mg·min/dL. The “Glucose AUC (0 to 120 min), intraperitoneal glucose load, MEAN” value ([6]; 20.0 nmole/kg) was 19264* mg * min/dL, the “blood glucose at all time points before and after IP glucose challenge versus vehicle” value ([6]; high dose of analogue, both doses of positive control, day 29) was “significantly lowered” and the “glucose levels after IP glucose challenge” value ([6]; low dose, day 29) was “little effect”. The “cumulative weight loss, reduction compared to the vehicle group” value ([7]; 7.5 nmole/kg every 3 days, 2 weeks) was “about 9%”, the “Fat mass loss (g fat weight change for 14 days)” value ([7]; 7.5 nmole/kg sc every 3 days) was -2.2 ± 0.3 g and the “Overall weight loss (g weight change for 14 days)” value ([7]; 7.5 nmole/kg sc every 3 days) was -3.1 ± 0.4 g. For the same substance, the “Total food intake (g total for 14 days)” value ([7]; 7.5 nmole/kg sc every 3 days) was 35.0 ± 0.8 g, the “vehicle controlled cumulative weight loss” value ([7]; 15 nmole/kg every 3 days, 2 weeks) was 18% and the “Fat mass loss (g fat weight change for 14 days)” value ([7]; 15 nmole/kg sc every 3 days) was -3.9 ± 0.7 g. The “Overall weight loss (g weight change for 14 days)” value ([7]; 15 nmole/kg sc every 3 days) was -6.1 ± 0.9 g, the “Total food intake (g total for 14 days)” value ([7]; 15 nmole/kg sc every 3 days) was 29.8 ± 1.5 g and the “cumulative food intake reduction compared to the vehicle group” value ([7]; 15 nmole/kg, end of 2-week study) was 27%. For the same substance, the “effect on food intake and body weight” value ([7]; 7.5 and 15 nmole/kg, 2 weeks) was “dose-dependent reduction”.
